According to ChEMBL document CHEMBL1201862, “PubChem BioAssay data set” (2004):
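Five concentrations, 48 hours, 96-well plates. GI50 = concentration required for 50% inhibition of growth.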 The source made the active and inactive calls. Cut-off read from the data, not from the text of the source: active = GI50 up to about 1.1 µM and inactive = higher.

What was measured:
Experiment in all cases: growth of human tumour cells (NCI), 48 h
[1] = tested on: 786-0
[2] = tested on: SNB-78
[3] = tested on: SK-MEL-2
[4] = tested on: HT-29
[5] = tested on: NCI-H522
[6] = tested on: HOP-92
[7] = tested on: ACHN
[8] = tested on: U-251
[9] = tested on: DMS-114
[10] = tested on: SK-MEL-5
[11] = tested on: COLO 205
[12] = tested on: K562
[13] = tested on: OVCAR-4
[14] = tested on: UACC-257
[15] = tested on: SK-OV-3
[16] = tested on: SF-539
[17] = tested on: SNB-19
[18] = tested on: LXFL 529
[19] = tested on: M14
[20] = tested on: UACC-62
[21] = tested on: NCI-H226
[22] = tested on: DLD-1
[23] = tested on: HOP-18
[24] = tested on: NCI-H23
[25] = tested on: SN12C
[26] = tested on: HCC 2998
[27] = tested on: NCI-H460
[28] = tested on: SW-620
[29] = tested on: KM12
[30] = tested on: OVCAR-5
[31] = tested on: KM-20L2
[32] = tested on: M19-MEL
[33] = tested on: SF-295
[34] = tested on: MOLT-4
[35] = tested on: HL-60
[36] = tested on: CCRF-CEM
[37] = tested on: CAKI-1
[38] = tested on: IGROV-1
[39] = tested on: OVCAR-8
[40] = tested on: SK-MEL-28
[41] = tested on: OVCAR-3
[42] = tested on: HOP-62
[43] = tested on: LOX IMVI
[44] = tested on: A498
[45] = tested on: DMS-273
[46] = tested on: HCT-15
[47] = tested on: EKVX
[48] = tested on: TK-10
[49] = tested on: SF-268
[50] = tested on: SNB-75
[51] = tested on: Malme-3M
[52] = tested on: UO-31
[53] = tested on: SR
[54] = tested on: HCT-116
[55] = tested on: RPMI-8226
[56] = tested on: RXF 393
[57] = tested on: A549

O=C(/C=C/c1ccco1)c1ccc(NCc2nc3ccccc3[nH]2)cc1 was tested. Which GI50 [1] did it give?
The GI50 was 14.6 µM (inactive).

And the GI50 [2]?
The GI50 was 21.3 µM (inactive).

What about the GI50 [3] of the same compound?
Its GI50 is 19.1 µM (inactive).

And the GI50 [4]?
Its GI50 is 19.8 µM (inactive).

What about the GI50 [5] of the same compound?
The GI50 was 9.62 µM (inactive).

What about the GI50 [6] of the same compound?
The GI50 was 12.2 µM (inactive).

What about the GI50 [7] of the same compound?
The GI50 was 17.5 µM (inactive).

And the GI50 [8]?
The GI50 was 10.9 µM (inactive).

And the GI50 [9]?
Its GI50 is 12 µM (inactive).

And the GI50 [10]?
The GI50 was 14.8 µM (inactive).

What about the GI50 [11] of the same compound?
Its GI50 is 13.5 µM (inactive).

What about the GI50 [12] of the same compound?
Its GI50 is 15.2 µM (inactive).

And the GI50 [13]?
Its GI50 is 19.2 µM (inactive).

And the GI50 [14]?
The GI50 was 11.1 µM (inactive).

What about the GI50 [15] of the same compound?
Its GI50 is 18.3 µM (inactive).

And the GI50 [16]?
Its GI50 is 18 µM (inactive).

And the GI50 [17]?
The GI50 was 15.6 µM (inactive).

And the GI50 [18]?
Its GI50 is 14.3 µM (inactive).

What about the GI50 [19] of the same compound?
Its GI50 is 16.9 µM (inactive).

What about the GI50 [20] of the same compound?
Its GI50 is 14 µM (inactive).

What about the GI50 [21] of the same compound?
Its GI50 is 1.73 µM (inactive).

What about the GI50 [22] of the same compound?
Its GI50 is 15 µM (inactive).

What about the GI50 [23] of the same compound?
The GI50 was 20.9 µM (inactive).

What about the GI50 [24] of the same compound?
Its GI50 is 13.5 µM (inactive).

And the GI50 [25]?
Its GI50 is 17.2 µM (inactive).

And the GI50 [26]?
The GI50 was 14.6 µM (inactive).

And the GI50 [27]?
Its GI50 is 23.3 µM (inactive).

And the GI50 [28]?
The GI50 was 16 µM (inactive).

And the GI50 [29]?
Its GI50 is 10.3 µM (inactive).

What about the GI50 [30] of the same compound?
The GI50 was 17.7 µM (inactive).

What about the GI50 [31] of the same compound?
The GI50 was 18.7 µM (inactive).

What about the GI50 [32] of the same compound?
The GI50 was 14.9 µM (inactive).

And the GI50 [33]?
The GI50 was 15.6 µM (inactive).

And the GI50 [34]?
Its GI50 is 10.4 µM (inactive).

And the GI50 [35]?
The GI50 was 13 µM (inactive).

What about the GI50 [36] of the same compound?
The GI50 was 13 µM (inactive).

What about the GI50 [37] of the same compound?
The GI50 was 17.2 µM (inactive).

What about the GI50 [38] of the same compound?
The GI50 was 18.1 µM (inactive).

What about the GI50 [39] of the same compound?
Its GI50 is 17.9 µM (inactive).

What about the GI50 [40] of the same compound?
The GI50 was 18 µM (inactive).

What about the GI50 [41] of the same compound?
Its GI50 is 16.6 µM (inactive).

What about the GI50 [42] of the same compound?
The GI50 was 19.1 µM (inactive).

What about the GI50 [43] of the same compound?
The GI50 was 12.2 µM (inactive).

What about the GI50 [44] of the same compound?
Its GI50 is 14.4 µM (inactive).

And the GI50 [45]?
The GI50 was 17.5 µM (inactive).

And the GI50 [46]?
The GI50 was 15 µM.

And the GI50 [47]?
The GI50 was 14.6 µM (inactive).

And the GI50 [48]?
Its GI50 is 17.9 µM (inactive).

And the GI50 [49]?
The GI50 was 20 µM (inactive).

And the GI50 [50]?
The GI50 was 15.8 µM (inactive).

And the GI50 [51]?
The GI50 was 19 µM (inactive).

What about the GI50 [52] of the same compound?
Its GI50 is 13.8 µM (inactive).

What about the GI50 [53] of the same compound?
The GI50 was 10.8 µM (inactive).

Which results are given for C=CCc1c(O)c2c(c3oc(=O)cc(C)c13)CC(C)O2 (centres undefined)?
GI50 [2]: > 100 µM (inactive); GI50 [3]: > 100 µM (inactive); GI50 [4]: 57.7 µM (inactive); GI50 [5]: > 100 µM (inactive); GI50 [7]: > 100 µM (inactive); GI50 [8]: > 100 µM (inactive); GI50 [9]: > 100 µM (inactive); GI50 [10]: > 100 µM (inactive); GI50 [12]: > 100 µM (inactive); GI50 [54]: > 100 µM (inactive); GI50 [13]: > 100 µM (inactive); GI50 [14]: > 100 µM (inactive); GI50 [15]: > 100 µM (inactive); GI50 [16]: > 100 µM (inactive); GI50 [17]: > 100 µM (inactive); GI50 [18]: > 100 µM (inactive); GI50 [55]: 60.8 µM (inactive); GI50 [19]: > 100 µM (inactive); GI50 [20]: > 100 µM (inactive); GI50 [21]: 41.5 µM (inactive); GI50 [22]: 48.6 µM (inactive); GI50 [23]: 90.2 µM (inactive); GI50 [24]: > 100 µM (inactive); GI50 [25]: > 100 µM (inactive); GI50 [26]: > 100 µM (inactive); GI50 [27]: 52.5 µM (inactive); GI50 [28]: > 100 µM (inactive); GI50 [30]: > 100 µM (inactive); GI50 [31]: > 100 µM (inactive); GI50 [32]: 72.4 µM (inactive); GI50 [33]: > 100 µM (inactive); GI50 [34]: 56.5 µM (inactive); GI50 [35]: 86.7 µM (inactive); GI50 [36]: 50.4 µM (inactive); GI50 [37]: > 100 µM (inactive); GI50 [38]: 20.2 µM (inactive); GI50 [39]: 65.3 µM (inactive); GI50 [41]: > 100 µM (inactive); GI50 [42]: > 100 µM (inactive); GI50 [43]: 46.3 µM (inactive); GI50 [45]: > 100 µM (inactive); GI50 [46]: > 100 µM; GI50 [47]: > 100 µM (inactive); GI50 [48]: > 100 µM (inactive); GI50 [49]: > 100 µM (inactive); GI50 [50]: > 100 µM (inactive); GI50 [56]: 67.8 µM (inactive); GI50 [51]: > 100 µM (inactive); GI50 [52]: 68.9 µM (inactive); GI50 [53]: > 100 µM (inactive); GI50 [57]: > 100 µM (inactive)
